Assay: Drying of the hydrate form to remove water
Format: physicochemical
Settings: hydrate form having moisture content about 6.64%; drying at 55° C. temperature for 24 hours
Text: The hydrate form of 6-carboxy-2-(3,5-dichlorophenyl)-benzoxazole meglumine of Formula-IA according to the present disclosure having moisture content in the range of about 3.5% to about 9% preferably about 5 to 7%. The hydrate form of 6-carboxy-2-(3,5-dichlorophenyl)-benzoxazole meglumine salt of Formula-IA having moisture up to 15 to 20% but the only 5 to 7% water is present in crystal lattice and the excess water molecule is present in surface of the Tafamidis meglumine crystal. […] The hydrate form of 6-carboxy-2-(3,5-dichlorophenyl)-benzoxazole meglumine salt of Formula-IA having moisture content about 6.64% and moisture content about 15% are resulting the same PXRD diffractogram. This confirms the water molecules up to moisture content about 6% is present in crystal lattice and the excess water is present in surface of the crystal. In an another embodiment, the present disclosure, the hydrate form of 6-carboxy-2-(3,5-dichlorophenyl)-benzoxazole meglumine having DSC as depicted in FIG. 1 and having TGA as depicted in FIG. 2.

water content after drying: not considerably reduced
Structure (SMILES): O=C(O)c1ccc2nc(-c3cc(Cl)cc(Cl)c3)oc2c1 [6-carboxy-2-(3,5-dichlorophenyl)-benzoxazole meglumine]

Reference: patent publication US20230265059A1, “SOLID STATE FORMS OF 6-CARBOXY-2-(3, 5-DICHLOROPHENYL)-BENZOXAZOLE OF FORMULA-I AND PHARMACEUTICALLY ACCEPTABLE SALTS THEREOF” (NURAY CHEMICALS PRIVATE LIMITED, priority 2020, published 2023)
